The results in this text go back to ChEMBL document CHEMBL1201862, “PubChem BioAssay data set” (2004).

Among the test systems are 786-0; CAKI-1; CCRF-CEM; COLO 205; HCC 2998; HCT-116; HCT-15; HT-29; IGROV-1; MOLT-4; NCI-H460; NCI-H522; OVCAR-3; OVCAR-8; RPMI-8226; SF-539; SNB-19; UACC-62; Hs-578T.
Test in all cases: growth of human tumour cells (NCI), 48 h

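Cells were grown in 96-well plates and exposed to each compound for 48 hours at five concentrations; endpoints were interpolated linearly between bracketing concentrations, or set to the highest concentration if not reached. GI50 = concentration required for 50% inhibition of growth.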 Activity calls are given as the source filed them. No stated cut-off is given here; in the data, active = GI50 up to about 1.1 µM and inactive = higher.

Take `O=CN/C=C/c1ccccc1`: the GI50 with 786-0 is > 100 µM (inactive); with CAKI-1, > 100 µM (inactive); with CCRF-CEM, > 100 µM (inactive); with COLO 205, > 63.2 µM (inactive); in the experiment with HCC 2998 it was > 100 µM (inactive); in the experiment with HCT-116 it was > 100 µM (inactive). Besides, the GI50 with HCT-15 is greater than 100 µM; in the experiment on HT-29 it was > 100 µM (inactive); in the experiment on IGROV-1 it was > 100 µM (inactive); in the experiment with MOLT-4, > 100 µM (inactive); with NCI-H460, > 100 µM (inactive); with NCI-H522, > 100 µM (inactive). Besides, the GI50 in the experiment on OVCAR-3, with OVCAR-8, with RPMI-8226, with SF-539, with SNB-19 and in the experiment with UACC-62 was > 100 µM (inactive) each time.
Take `CCOC(=O)C(C)N1C(=O)c2ccccc2S1(=O)=O` (stereo not given): the GI50 is > 100 µM (inactive) in the experiment on CAKI-1; > 100 µM (inactive) in the experiment with CCRF-CEM; > 100 µM (inactive) with COLO 205; > 100 µM (inactive) in the experiment on HCC 2998; > 100 µM (inactive) in the experiment on HCT-116; greater than 100 µM in the experiment on HCT-15. Also, the GI50 with HT-29, in the experiment with IGROV-1, in the experiment with MOLT-4, with NCI-H460, with NCI-H522 and in the experiment on OVCAR-3 was > 100 µM (inactive) throughout. Besides, the GI50 in the experiment on OVCAR-8, with RPMI-8226, in the experiment on SF-539, in the experiment on SNB-19 and in the experiment on UACC-62 was > 100 µM (inactive) throughout.
Regarding `C1CCC(OC2CSC2)OC1` (stereo not given), the GI50 was > 100 µM (inactive) in the experiment with CCRF-CEM; > 100 µM (inactive) with COLO 205; > 100 µM (inactive) with HCC 2998; > 100 µM (inactive) in the experiment on HCT-116; greater than 100 µM with HCT-15; > 100 µM (inactive) in the experiment with HT-29. Besides, the GI50 in the experiment on Hs-578T, with MOLT-4, with NCI-H460, with NCI-H522, in the experiment with OVCAR-3 and in the experiment with OVCAR-8 was > 100 µM (inactive) throughout. The GI50 in the experiment on SNB-19 is > 100 µM (inactive).
`C#CC(C)(C)Oc1cc(OC)c2c(=O)c3ccccc3n(C)c2c1`: the GI50 was 7.46 µM (inactive) in the experiment on 786-0; 5.27 µM (inactive) with CCRF-CEM; 14.8 µM (inactive) in the experiment with COLO 205; 30.7 µM (inactive) in the experiment on HCC 2998; 17.4 µM (inactive) in the experiment on HCT-116; 10.9 µM in the experiment with HCT-15. The GI50 in the experiment on HT-29 is 4.81 µM (inactive); in the experiment on Hs-578T, 17.5 µM (inactive); in the experiment with IGROV-1, 0.0238 µM (active); in the experiment with MOLT-4 it was 3.85 µM (inactive); in the experiment on NCI-H460 it was 13.5 µM (inactive); in the experiment with OVCAR-8, 15.4 µM (inactive). Moreover, the GI50 was 4.4 µM (inactive) in the experiment with RPMI-8226, 26.1 µM (inactive) in the experiment on SF-539, 14.7 µM (inactive) in the experiment on SNB-19 and 7.59 µM (inactive) in the experiment with UACC-62.
On to `CC1=C(C)Cc2c(O)ccc(O)c2C1`, for which the GI50 is 18.2 µM (inactive) in the experiment with CAKI-1; 3.12 µM (inactive) with CCRF-CEM; 20.4 µM (inactive) in the experiment on COLO 205; 15.9 µM (inactive) in the experiment with HCT-116; 17.5 µM in the experiment with HCT-15; 14.1 µM (inactive) with HT-29. The GI50 in the experiment on Hs-578T was 17.7 µM (inactive); with MOLT-4, 19.3 µM (inactive); in the experiment with NCI-H460, 43.7 µM (inactive); in the experiment with OVCAR-3, 20.4 µM (inactive); with OVCAR-8 it was 16.1 µM (inactive); with RPMI-8226, 6 µM (inactive). Also, the GI50 in the experiment with SF-539 is 20 µM (inactive); in the experiment with SNB-19, > 100 µM (inactive); in the experiment with UACC-62 it was 16.5 µM (inactive).
Take `Cc1cc(-c2ccccc2)nc(Nc2cc3ccccc3[nH]2)n1`: the GI50 with 786-0, in the experiment on CAKI-1, in the experiment on CCRF-CEM, with COLO 205, with HCC 2998 and in the experiment with HCT-116 was > 100 µM (inactive) throughout. Besides, the GI50 with HCT-15 is greater than 100 µM; in the experiment on HT-29, > 100 µM (inactive); in the experiment on IGROV-1, > 100 µM (inactive); in the experiment with MOLT-4, > 100 µM (inactive); in the experiment on NCI-H460, > 100 µM (inactive); with NCI-H522 it was > 100 µM (inactive). The GI50 in the experiment with OVCAR-3, in the experiment on OVCAR-8, in the experiment with RPMI-8226, with SF-539, in the experiment on SNB-19 and in the experiment with UACC-62 was > 100 µM (inactive) each time.
`O=C(O/N=C1/CCC/C1=C\c1ccccc1)c1ccc(Cl)cc1`: the GI50 in the experiment with 786-0 is 51.8 µM (inactive); in the experiment with CAKI-1, > 52.1 µM (inactive); with CCRF-CEM, > 100 µM (inactive); in the experiment with COLO 205, > 100 µM (inactive); in the experiment with HCC 2998 it was > 100 µM (inactive); in the experiment with HCT-116, > 100 µM (inactive). In addition, the GI50 in the experiment on HCT-15 was greater than 100 µM; with HT-29 it was > 100 µM (inactive); in the experiment with IGROV-1, > 46.5 µM (inactive); in the experiment with MOLT-4, > 100 µM (inactive); in the experiment on NCI-H460 it was > 31.6 µM (inactive); in the experiment on NCI-H522, > 58.2 µM (inactive). Further, the GI50 with OVCAR-3 is 36 µM (inactive); with OVCAR-8 it was > 71.6 µM (inactive); in the experiment with RPMI-8226 it was > 65.9 µM (inactive); with SF-539, 25.2 µM (inactive); with SNB-19, > 100 µM (inactive); with UACC-62 it was > 80.4 µM (inactive).
Turning to `COc1cc(C(C)O)c[n+](Cc2ccccc2)c1` (stereo not given), the GI50 in the experiment with 786-0, in the experiment on CAKI-1, in the experiment with CCRF-CEM, in the experiment on COLO 205, in the experiment with HCC 2998 and with HCT-116 was > 100 µM (inactive) each time. Also, the GI50 in the experiment on HCT-15 was greater than 100 µM; in the experiment with HT-29, > 100 µM (inactive); in the experiment on IGROV-1, > 100 µM (inactive); in the experiment on MOLT-4, > 100 µM (inactive); in the experiment on NCI-H460, > 100 µM (inactive); with NCI-H522 it was > 100 µM (inactive). Besides, the GI50 with OVCAR-3 was > 100 µM (inactive); in the experiment with OVCAR-8, > 31.6 µM (inactive); in the experiment with RPMI-8226 it was > 100 µM (inactive); in the experiment with SF-539 it was > 100 µM (inactive); with SNB-19, > 100 µM (inactive); with UACC-62, > 100 µM (inactive).
As for `CCCCCCCC/C=C\CCCCCCCCCCCC(=O)O` [ERUCIC ACID], the GI50 in the experiment on CAKI-1 is 42 µM (inactive); in the experiment with CCRF-CEM it was 24.4 µM (inactive); with COLO 205, 20.2 µM (inactive); with HCC 2998 it was 44.1 µM (inactive); with HCT-116 it was 22.3 µM (inactive); in the experiment with HCT-15, 43.7 µM. The GI50 was 43.8 µM (inactive) in the experiment on HT-29; 55.1 µM (inactive) in the experiment with IGROV-1; 37.3 µM (inactive) in the experiment on MOLT-4; 7.48 µM (inactive) in the experiment on NCI-H460; 19.8 µM (inactive) in the experiment with NCI-H522; 17.8 µM (inactive) in the experiment with OVCAR-3. Besides, the GI50 in the experiment with OVCAR-8 is 37.2 µM (inactive); in the experiment with RPMI-8226 it was 45.6 µM (inactive); with SF-539, 16.8 µM (inactive); with SNB-19 it was 30.8 µM (inactive); in the experiment with UACC-62, 27.5 µM (inactive).
